Legend:
[1] = system: focal cerebral ischemia reperfusion model rats; assay: Focal cerebral ischemia reperfusion model in rats, intraperitoneal dosing (Example 16); format: in vivo, Wistar rats; conditions: for Cerebral infarction size (%): 2 h ischemia, 24 h reperfusion, i.p. twice (30 min before ischemia, 12 h after reperfusion), combination 0.5+0.25 mg/kg, control 35.7 ± 7.52; for Cerebral infarction size (%) / neurological deficit score (points) / Cerebral water content (%): Edaravone 1.0 mg/kg, natural borneol 0.5 mg/kg, mean ± SD; for neurological deficit score (points): Longa 5-point scoring 24 h after reperfusion, control 3.1 ± 1.05; for neurological deficit score (points) / Cerebral water content (%): combination 0.5+0.25 mg/kg i.p. twice; for Cerebral water content (%): dry and wet method after ischemia/reperfusion, sham 78.41, control 82.19; for cerebral edema / cerebral water content compared with control group: single drugs P<0.05, combination P<0.01; for effect on symptoms of neurological deficits: versus control group, doses as Table 1
Description: 1.1 Animals: healthy male Wistar rats weighing 280-320 g.
1.2 Drugs and Reagents: Edaravone for injection (2 mg/mL) of Example 1, natural borneol injection (2 mg/mL) of Example 3 and Edaravone+natural borneol injection of Example 5.
Main steps are described as follows. Rats were anesthetized with 10% chloral hydrate (350 mg/kg, i.p.). Right external carotid was separated, ligated and severed. A nylon thread with rounded tip was inserted slowly for about 18 mm in depth into the residual end of right external carotid and through common carotid and internal carotid to induce ischemia by blocking the origin of middle cerebral artery. After ischemia for 2 h, the nylon thread was removed for reperfusion for 24 h. Animals in the sham group were treated identically to those in the model group, except that a nylon thread was just used to separate the artery. Manifestation of Homer's symptom and opposite lateral body dyskinesia after animal revival means a successful modelling.
Experimental animals were randomly divided into five groups, including sham group, control group and drug groups. Animals in drug groups were intraperitoneally injected twice, 30 min before ischemia and 12 h after reperfusion. Animals in sham group and control group were each injected with equal volume of normal saline instead.
Neurological deficit scoring: Behavioral evaluation was performed 24 h after reperfusion according to Longa 5-point scoring system.
Determination of cerebral infarction size: Animals were decapitated to get the brain after the last neurological deficit scoring. Rhinencephalon, lower brain stem and cerebella were removed, and the remaining brains were immediately weighted to obtain wet weights. The brains were sectioned coronally into five slices with substantially identical thickness on ice, then incubated in 2,3,5-triphenyl tetrazolium chloride for 30 min at 37° C. Normal brain tissues appeared rose, while infarction areas appeared white. Next, brain slices were fixed in 10% formaldehyde, and white tissues were carefully removed and weighed. Infarction size was determined by the percentage of infracted tissue weight in the total cerebral weight.
Determination of cerebral water content: Cerebral water contents were determined by dry and wet method. Animals were sacrificed to get the whole brain. Rhinencephalon, lower brain stem and cerebella were removed and the wet weight of the remaining brains was determined immediately. Dry weight was obtained after baking in a oven for about 18 h at 120° C. Cerebral water content was calculated according to the following equation: Cerebral water content (%)=(cerebral wet weight−cerebral dry weight)/cerebral wetweight×100.

[2] = system: cerebral ischemia/reperfusion model rats; assay: Focal cerebral ischemia/reperfusion model, Edaravone versus combinations 2:1, 4:1, 9:1 (Example 18); format: in vivo, Wistar rats
Description: 1.1 Animals: Healthy male Wistar rats weighing 280-320 g.
1.2 Drugs and Reagents: Edaravone for injection (2 mg/mL) of Example 1, and Edaravone+natural borneol for injection of Examples 5, 7 and 11.
Experimental methods and evaluation methods are the same as Example 13.

New Zealand rabbits = assay: Repeated intravenous toxicity in rabbits: hematuria, gross necropsy, histopathology (Example 19); format: in vivo; conditions: for incidence of hematuria: marginal ear vein once daily, 6 rabbits
Description: 1.1 Animals: 36 New Zealand rabbits, general grade, with body weight of 2.0-3.0 kg, 18 ♂ and 18 ♀(female and male) respectively.
1.2 Drugs and Reagents: drugs obtained from Examples 12, 13, 14 and 15; 1,2-propylene glycol, 0.9% sodium chloride injection.
Edaravone 80 mg/kg (propylene glycol content: 40%)
Edaravone 20 mg/kg (propylene glycol content: 10%)
Combined Edaravone 120 mg/kg (propylene glycol content: 50%)
Combined Edaravone 30 mg/kg (propylene glycol content: 10%)
Combined Edaravone in this Example refers to Edaravone+natural borneol (weight ratio=2:1).
In the above dosage groups, the dosage per day per rabbit was calculated according to actual weight of each rabbit. The test drugs were administrated in equal volume according to body weight of respective rabbits.
36 rabbits were numbered and randomly divided into six groups according to the body weight, including 4 dosage groups, “Edaravone+natural borneol (weight ratio=2:1)” 120 mg/kg, 30 mg/kg; “Edaravone” 80 mg/kg, 20 mg/kg; as well as vehicle group (40% propylene glycol solution) and solvent group (0.9% sodium chloride injection). There were 6 rabbits in each group, including 3 males and 3 females each. Rabbits were habituated and observed for 3 days before the test. During the test, rabbits were dosed once at the same time in each morning via marginal ear vein injection. Rabbits in high dosage groups were continuously dosed for 13 days, while in low dosage groups, solvent group and vehicle group for 20 days. The dosage were regulated in accordance with body weight variation. Animal responses, stimulations at injection sites and histopathological examination in kidneys and injection site were used to comprehensively evaluate the toxicity of either combined Edaravone or Edaravone on the rabbits.

[3] = system: MCAO cerebral ischemia/reperfusion model rats; assay: Middle cerebral artery occlusion (MCAO) cerebral ischemia/reperfusion model, internal carotid thread method (Example 17); format: in vivo, Wistar rats; conditions: Edaravone+natural borneol total 0.75 mg/kg, Nimodipine 0.4 mg/kg single dosage, mean ± SD, n=8
Description: 1.2 Drugs and Reagents: Edaravone+natural borneol for injection of Examples 5, 8 and 9.
Middle cerebral artery occlusion (MCAO), a cerebral ischemia/reperfusion model, was prepared using the internal carotid thread method. Animals were anesthetized with 10% chloral hydrate (3.5 mL/kg), and then fixed on the operation table in prone position. The skin was disinfected and the neck was incised from the midline. Right common carotid, external carotid and internal carotid were separated, and vagus nerve was separated carefully. The external carotid was ligated and severed. Moved forward along the internal carotid, and then pterygopalatine artery was ligated. The proximal part of common carotid was clamped and a cut was made at the distal end of the external carotid ligature. A nylon thread with the outer diameter of 0.285 mm was inserted into the cut, through the branch of common carotid and then into internal carotid slowly until a slight resistance was met (about 20 mm distance from the divergence point). […] Cerebral blood flow was monitored by using laser Doppler cerebral flowmetry. After ischemia in the right brain for 2.0 h, the nylon thread was withdrawn slowly and then blood supply was recovered for reperfusion. The scalp was sutured and disinfected. In the sham group, only the blood vessels were separated without the insertion of a nylon thread. During the operation, rat heating plate and desk lamp with 60 W were used to keep the body temperature of rats at 37.0±0.5° C. […]
Neurological deficit scoring: neurological deficit symptoms were evaluated according to modified Bederson scoring system of 5-point. Neurological deficit symptoms after cerebral trauma in rats were evaluated by using single-blinded method. That is, the experiment designer labeled the animals in groups, while the experiment performer who scored neurological deficit symptoms were blinded for animals grouping. […]

[4] = Edaravone 80 and 20 mg/kg groups, combined Edaravone 120 and 30 mg/kg groups

CC1=NN(c2ccccc2)C(=O)C1 [Edaravone, 3-methyl-1-phenyl-2-pyrazolin-5-one]
Cerebral infarction size (%) [1]: 18.0 ± 5.29 %
neurological deficit score (points) [1]: 2.5 ± 1.02 points
Cerebral water content (%) [1]: 81.65 ± 1.24 %
cerebral edema / cerebral water content compared with control group [1]: significant effect
effect on symptoms of neurological deficits [1]: Neither Edaravone alone nor natural borneol alone had significant effect
neurological deficit symptoms score ([2]; Edaravone 3 mg/kg, combination dose not given, mean ± SD, n=8, model 2.7 ± 0.5): 0.94 ± 0.46
cerebral infarction area ([2]; Edaravone 3 mg/kg, combination dose not given, mean ± SD, n=8, model 25.4 ± 14.8): 9.7 ± 4.6
brain lesion ([2]; Edaravone 3 mg/kg, combination dose not given, mean ± SD, n=8, model 32.2 ± 15.1): 11.6 ± 9.7
cerebral infarction area compared with model group ([2]; F4,35=4.62, P=0.03, 4:1 and 9:1 P=0.081): significantly reduced
severity of brain lesion compared with model group ([2]; F4,35=5.78, P=0.04, 4:1 and 9:1 P=0.159): significantly reduced
gross necropsy: rabbits with a swollen kidney (New Zealand rabbits; 20 mg/kg i.v. daily, 20 days): 3 of 6
incidence of hematuria (New Zealand rabbits; 20 mg/kg, 20 days, propylene glycol 10%): 100%
gross necropsy: liver finding (New Zealand rabbits; 80 mg/kg i.v. daily, 13 days): one of the rabbits suffered hepatonecrosis and had a khaki and hard liver
gross necropsy: rabbits with khaki and swollen kidney having uneven surface (New Zealand rabbits; 80 mg/kg i.v. daily, 13 days): 3 of 6
incidence of hematuria (New Zealand rabbits; 80 mg/kg, 13 days, propylene glycol 40%): 100%
histopathological examination: injection sites (New Zealand rabbits; [4]): stimulatory changes such as vascular occlusion to varied extents
histopathological examination: kidney (New Zealand rabbits; [4]): progressive renal lesion such as renal tubular lesion, inflammatory infiltration of mesenchyme, and glomerular lesion

CC1(C)C2CCC1(C)C(O)C2 (stereo not shown) [Natural borneol, dextro-camphol]
Cerebral infarction size (%) [1]: 19.8 ± 6.37 %
neurological deficit score (points) [1]: 2.0 ± 0.98 points
Cerebral water content (%) [1]: 81.25 ± 0.97 %
cerebral edema / cerebral water content compared with control group [1]: significant effect
effect on symptoms of neurological deficits [1]: Neither Edaravone alone nor natural borneol alone had significant effect

COCCOC(=O)C1=C(C)NC(C)=C(C(=O)OC(C)C)C1c1cccc([N+](=O)[O-])c1 (stereo not shown) [Nimodipine]
neurological deficit symptoms score ([3]; modified Bederson 5-point score, four administrations (0, 2, 4, 24 h after ischemia), model 2.6 ± 0.52): 1.1 ± 0.58
brain lesion ([3]; percentage of brain lesion by formazan absorbance at 485 nm, model 33.2 ± 14.8): 11.6 ± 5.0
cerebral infarction area ([3]; percentage of infarction area by TTC image analysis, model 27.4 ± 13.4): 8.8 ± 4.0

From patent US8658684B2, “Pharmaceutical composition and its use in the preparation of a medicament for the treatment of cerebrovascular diseases” (Jiangsu Simcere Pharmaceutical R & D Co., Ltd., priority 2008, dated 2014)
